How the values were obtained:
SSTR4 [1] = biological target: T1, SSTR4 (Homo sapiens (Human), UniProt P31391); assay: SSTR4 I-125 somatostatin competition binding assay (membranes from CHO-K1 cells overexpressing SSTR4); conditions: competition with I-125 labeled somatostatin
Method: Membranes from CHO-K1 cells overexpressing SSTR4 are purchased from Perkin Elmer (catalog number ES-524-M400UA). Test compounds are suspended in DMSO and then diluted in assay buffer (25 mM HEPES pH 7.4, 10 mM MgCl2, 1 mM CaCl2), 0.5% BSA) plus 0.2 nM I-125 labeled somatostatin (Perkin Elmer catalog number NEX389). […] Then 1 μg of SSTR4 membranes in 50 μL assay buffer are added per well. The Plate is incubated for 60 minutes at room temperature. FilterMat A filters (Perkin Elmer catalog number 1450-421) are pre-soaked in 0.5% PEI (Sigma catalog number P3143). The contents of the assay plate are transferred to filters with a TomTech harvester and washed 5 times with 20 mM HEPES, 100 mM NaCl. The filters are dried in a microwave oven then transferred to sample bag containing a scintillator sheet (Perkin Elmer catalog number 1450-441). The scintillator sheets are melted to filters using a heat block. The filters are then read in a MicroBeta scintillation counter. Binding Ki curves are generated using Activity Base for Screening Data Management and the results are reported as pIC50.

SSTR4 [2] = biological target: T1, SSTR4; assay: Inhibition of forskolin stimulated cAMP in CHO-K1 cells overexpressing SSTR4; type: cell-based
Method in brief: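 Read-out is a HTRF LANCE Ultra cAMP competition using Eu-labelled streptavidin and biotin-cAMP, incubated 60 min at room temperature. It followed a 30 min room-temperature exposure of Kreb's Ringer-washed cells to compound plus forskolin. Potency is expressed as pEC50.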

SSTR1 = SSTR1 (Homo sapiens (Human), UniProt P30872); assay: SSTR1 I-125 somatostatin competition binding assay for selectivity versus SSTR4 (membranes from CHO-K1 cells overexpressing SSTR1); conditions: competition with I-125 labeled somatostatin, CHO-K1 SSTR1 membranes;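 note: Filter-based radioligand binding, bound label counted by scintillation after 60 min incubation at room temperature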
SSTR1, sequence (P30872 whole entry): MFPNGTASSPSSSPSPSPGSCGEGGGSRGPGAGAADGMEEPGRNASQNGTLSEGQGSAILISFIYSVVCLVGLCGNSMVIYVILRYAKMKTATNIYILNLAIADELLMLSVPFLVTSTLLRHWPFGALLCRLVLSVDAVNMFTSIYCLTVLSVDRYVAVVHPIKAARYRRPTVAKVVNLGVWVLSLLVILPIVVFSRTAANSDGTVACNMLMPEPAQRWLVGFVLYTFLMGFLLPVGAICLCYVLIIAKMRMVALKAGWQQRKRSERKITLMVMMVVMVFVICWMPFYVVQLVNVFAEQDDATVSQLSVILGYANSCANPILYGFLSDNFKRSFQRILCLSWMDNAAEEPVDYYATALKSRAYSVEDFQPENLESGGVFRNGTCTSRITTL

T1 sequence (P31391 whole entry): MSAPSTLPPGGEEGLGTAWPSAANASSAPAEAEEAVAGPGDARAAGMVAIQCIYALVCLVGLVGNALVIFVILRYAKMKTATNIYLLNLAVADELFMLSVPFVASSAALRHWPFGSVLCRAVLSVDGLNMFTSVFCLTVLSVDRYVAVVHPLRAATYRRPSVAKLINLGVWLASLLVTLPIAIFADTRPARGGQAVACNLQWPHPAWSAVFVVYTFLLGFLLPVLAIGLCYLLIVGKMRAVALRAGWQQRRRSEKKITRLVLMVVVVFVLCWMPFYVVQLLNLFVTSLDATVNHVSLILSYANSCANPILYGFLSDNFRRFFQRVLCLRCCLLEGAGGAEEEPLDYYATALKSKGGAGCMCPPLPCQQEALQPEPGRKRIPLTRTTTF

CN1CC[C@H](NC(=O)C(C)(C)COc2ccccc2Cl)[C@@H](F)C1 [Example 188, 3-(2-chlorophenoxy)-N-((3S,4S)-3-fluoro-1-methylpiperidin-4-yl)-2,2-dimethylpropanamide]
SSTR4 Binding pIC50 (SSTR4 [1]): 7.6
SSTR4 Activity pEC50 (SSTR4 [2]): 8.2
SSTR1 Binding pIC50 (SSTR1): 5.0

C[C@H]1CNCC[C@@H]1NC(=O)C(C)(C)COc1ccccc1Cl [Example 190, 3-(2-chlorophenoxy)-2,2-dimethyl-N-((3S,4S)-3-methylpiperidin-4-yl)propanamide]
SSTR4 Binding pIC50 (SSTR4 [1]): 7.6
SSTR4 Activity pEC50 (SSTR4 [2]): 9.8
SSTR1 Binding pIC50 (SSTR1): 5.3

C[C@@H]1C[C@H](NC(=O)C(F)(F)COc2ncccc2C2CC2)CCN1C [Example 194, 3-((3-cyclopropylpyridin-2-yl)oxy)-N-((2R,4R)-1,2-dimethylpiperidin-4-yl)-2,2-difluoropropanamide]
SSTR4 Binding pIC50 (SSTR4 [1]): 7.7
SSTR4 Activity pEC50 (SSTR4 [2]): 8.4
SSTR1 Binding pIC50 (SSTR1): 4.4

C[C@H]1CN(C)CC[C@@H]1NC(=O)C(C)(C)COc1ccccc1F [Example 202, N-((3S,4S)-1,3-dimethylpiperidin-4-yl)-3-(2-fluorophenoxy)-2,2-dimethylpropanamide]
SSTR4 Binding pIC50 (SSTR4 [1]): 7.0
SSTR4 Activity pEC50 (SSTR4 [2]): 7.1
SSTR1 Binding pIC50 (SSTR1): 5.0

C[C@H]1CNCC[C@@H]1NC(=O)C(F)(F)COc1ncccc1C(F)(F)F [Example 208, 2,2-difluoro-N-((3S,4S)-3-methylpiperidin-4-yl)-3-((3-(trifluoromethyl)pyridin-2-yl)oxy)propanamide]
SSTR4 Binding pIC50 (SSTR4 [1]): 7.1
SSTR4 Activity pEC50 (SSTR4 [2]): 8.6
SSTR1 Binding pIC50 (SSTR1): 4.4

C[C@H]1CNCC[C@@H]1NC(=O)C(F)(F)COc1ncccc1C1CC1 [Example 209, 3-((3-cyclopropylpyridin-2-yl)oxy)-2,2-difluoro-N-((3S,4S)-3-methylpiperidin-4-yl)propanamide]
SSTR4 Binding pIC50 (SSTR4 [1]): 7.6
SSTR4 Activity pEC50 (SSTR4 [2]): 9.2
SSTR1 Binding pIC50 (SSTR1): 4.9

C[C@H]1CNCC[C@@H]1NC(=O)C(F)(F)COc1ncccc1OC(F)(F)F [Example 210, 2,2-difluoro-N-((3S,4S)-3-methylpiperidin-4-yl)-3-((3-(trifluoromethoxy)pyridin-2-yl)oxy)propanamide]
SSTR4 Binding pIC50 (SSTR4 [1]): 7.6
SSTR4 Activity pEC50 (SSTR4 [2]): 9.1
SSTR1 Binding pIC50 (SSTR1): 4.5

C[C@@H]1C[C@H](NC(=O)C(F)(F)COc2ncccc2C2CC2)CCN1 [Example 211, 3-((3-cyclopropylpyridin-2-yl)oxy)-2,2-difluoro-N-((2R,4R)-2-methylpiperidin-4-yl)propanamide]
SSTR4 Binding pIC50 (SSTR4 [1]): 7.2
SSTR4 Activity pEC50 (SSTR4 [2]): 8.9
SSTR1 Binding pIC50 (SSTR1): 4.8

C[C@@H]1C[C@H](NC(=O)C(F)(F)COc2ncccc2OC(F)(F)F)CCN1 [Example 212, 2,2-difluoro-N-((2R,4R)-2-methylpiperidin-4-yl)-3-((3-(trifluoromethoxy)pyridin-2-yl)oxy)propanamide]
SSTR4 Binding pIC50 (SSTR4 [1]): 7.4
SSTR4 Activity pEC50 (SSTR4 [2]): 8.6
SSTR1 Binding pIC50 (SSTR1): 4.5

CC(C)(COc1ccccc1Cl)C(=O)NC1CCNCC1 [Example 213, 3-(2-chlorophenoxy)-2,2-dimethyl-N-(piperidin-4-yl)propanamide]
SSTR4 Binding pIC50 (SSTR4 [1]): 7.6
SSTR4 Activity pEC50 (SSTR4 [2]): 8.7
SSTR1 Binding pIC50 (SSTR1): 4.6

C[C@H]1CNCC[C@@H]1NC(=O)C(F)(F)COc1ccccc1Cl [Example 216, 3-(2-chlorophenoxy)-2,2-difluoro-N-((3S,4S)-3-methylpiperidin-4-yl)propanamide]
SSTR4 Binding pIC50 (SSTR4 [1]): 7.7
SSTR4 Activity pEC50 (SSTR4 [2]): 9.4
SSTR1 Binding pIC50 (SSTR1): 4.8

Source: patent US11045457B2, “Piperidinyl-3-(aryloxy)propanamides and propanoates” (priority 2018, dated 2021)
